According to patent US9353082B2, “Pharmaceutical compounds” (BIAL—PORTELA & CA, S.A., priority 2008, dated 2016):

molecular target: T1, FAAH (Rattus norvegicus, UniProt P97612); test: In vitro FAAH activity in rat brain membranes, 3H-AEA substrate, % of control; format: biochemical, Wistar rats; settings: 100 nM test compound, low value = strong inhibitor
T1 construct: Frozen brains (without cerebellum) from Wistar rats were used; from tissue; host or cells: Wistar rat brain (without cerebellum), washed membrane pellets
T1 sequence (P97612 1-579): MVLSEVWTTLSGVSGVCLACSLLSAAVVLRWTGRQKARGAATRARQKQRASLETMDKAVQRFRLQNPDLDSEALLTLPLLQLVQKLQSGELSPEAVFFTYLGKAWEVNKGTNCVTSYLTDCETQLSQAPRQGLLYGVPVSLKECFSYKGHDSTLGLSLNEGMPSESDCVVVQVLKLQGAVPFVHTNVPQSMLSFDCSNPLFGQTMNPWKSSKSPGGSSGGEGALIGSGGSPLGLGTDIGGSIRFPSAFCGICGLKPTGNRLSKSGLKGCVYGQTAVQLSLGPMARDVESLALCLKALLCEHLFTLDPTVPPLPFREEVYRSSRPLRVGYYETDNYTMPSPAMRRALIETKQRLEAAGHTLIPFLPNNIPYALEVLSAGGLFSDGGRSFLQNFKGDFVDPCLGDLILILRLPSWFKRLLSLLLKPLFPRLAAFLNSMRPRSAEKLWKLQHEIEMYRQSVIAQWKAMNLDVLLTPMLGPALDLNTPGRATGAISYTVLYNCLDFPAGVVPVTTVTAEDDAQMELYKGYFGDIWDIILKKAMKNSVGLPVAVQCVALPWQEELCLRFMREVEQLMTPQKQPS
Description: 3. Biological Efficacy of Compounds of the Invention The in vitro test was performed according to the protocol described below. The controls for both in vitro and in vivo were the reaction mix minus the test compounds. Therefore, a low value in Table 1 below for the test compounds indicates a strong inhibitor.
The in vitro pharmaceutical FAAH activity was determined according to the following method:
Frozen brains (without cerebellum) from Wistar rats were used, and each brain was homogenized in 15 ml 1 mM MgCL2, […] HEPES pH 7.0 with Potter Elvejhem (8 strokes at 500 rpm). Homogenates were centrifuged for 20 min at 36000 g at 4° C. (Beckman, 70Ti rotor). Pellets were resuspended in 15 ml of the same buffer and centrifuged under the same conditions. Pellets were resuspended in 15 ml of the same buffer and incubated for 15 min at 37° C. after which they were centrifuged for 20 min at 36000 g at 4° C. Each pellet was then resuspended in 15 ml 3 mM MgCl2, 1 mM EDTA, 50 mM Tris pH 7.4 and protein determined with BioRad Protein Assay (BioRad) using a standard curve of BSA (50-250 μg/ml). The membrane suspensions were aliquoted and stored at −80° C.
The FAAH activity was determined using AEA (labelled with 3H in the ethanolamine part of the molecule) as substrate and measuring the 3H-ethanolamine formed. Reaction mix (total volume of 200 up contained: 2 μM AEA (2 μM AEA+5 nM 3H-AEA), 0.1% fatty acid free BSA, 5 μg protein, in 1 mM EDTA, 10 mM Tris pH 7.6 and 10 μM or 0.1 μM compounds. Stock solutions of the compounds to test (10 mM) were prepared in 100% DMSO and the DMSO concentration in the assay was 0.1%. After a 15 min preincubation period at 37° C., reaction was started by the addition of the substrate solution ([…]). Reaction was carried out for 10 min before termination by the addition of 400 μl activated charcoal suspension (8 g charcoal in 32 ml 0.5 M HCl in continuous agitation). After a 30 min incubation period at room temperature with agitation, charcoal was sedimented by centrifugation in microfuge (10 min at 13000 rpm). 200 μl of the supernatant were added to 800 μl Optiphase Supermix scintillation cocktail previously distributed in 24-well plates. Counts per minute (cpm) were determined in Microbeta TriLux scintillation counter (10 min counting or until s=2).
In each assay blanks (no protein, usually below 200 cpm) and controls (no compound) were present. The results are reported in Table 1 as % of control after blank subtraction.

Row | In Vitro FAAH activity, 100 nM | SMILES
1 | 97.2 % of control | COc1ccc2c(ccn2C(=O)N2CCOCC2)c1 [Compound 47, (5-methoxy-1H-indol-1-yl)(morpholino)methanone]
2 | 96.9 % of control | COc1ccc(NC(=O)n2nnc3ccccc32)cc1 [Compound 57, N-(4-methoxyphenyl)-1H-benzo[d][1,2,3]triazole-1-carboxamide]
3 | 100.4 % of control | O=C(Nc1ccc(F)cc1F)n1nnc2ccccc21 [Compound 59, N-(2,4-difluorophenyl)-1H-benzo[d][1,2,3]triazole-1-carboxamide]
4 | 93.8 % of control | O=C(Nc1ccccc1)n1nnc2ccccc21 [Compound 60, N-phenyl-1H-benzo[d][1,2,3]triazole-1-carboxamide]
5 | 67.9 % of control | COc1ccc(-c2ncn(C(=O)N(C)c3ccccc3)n2)cc1 [Compound 64, 3-(4-methoxyphenyl)-N-methyl-N-phenyl-1H-1,2,4-triazole-1-carboxamide]
6 | 80.8 % of control | CN(C(=O)n1cnc(-c2ccc(Cl)cc2)n1)c1ccc(F)cc1 [Compound 69, 3-(4-chlorophenyl)-N-(4-fluorophenyl)-N-methyl-1H-1,2,4-triazole-1-carboxamide]
7 | 85.8 % of control | O=C(N1CCOCC1)n1cnc(-c2ccccc2)n1 [Compound 73, morpholino(3-phenyl-1H-1,2,4-triazol-1-yl)methanone]
8 | 97.1 % of control | CN(C(=O)n1nnc2ccccc21)c1ccc(N2CCOCC2)cc1 [Compound 76, N-methyl-N-(4-morpholinophenyl)-1H-benzo[d][1,2,3]triazole-1-carboxamide]
9 | 105.4 % of control | O=C(Nc1ccc(-c2ccccc2)cc1)n1nnc2ccccc21 [Compound 88, N-(biphenyl-4-yl)-1H-benzo[d][1,2,3]triazole-1-carboxamide]
10 | 38.6 % of control | Cl.O=C(N1CCC(N2CCOCC2)CC1)n1nnc2ccccc21 [Compound 90, (1H-benzo[d][1,2,3]triazol-1-yl)(4-morpholinopiperidin-1-yl)methanone hydrochloride]
11 | 96 % of control | Cl.O=C(N1CCC(N2CCCC2)CC1)n1nnc2ccccc21 [Compound 92, (1H-benzo[d][1,2,3]triazol-1-yl)(4-(pyrrolidin-1-yl)piperidin-1-yl)methanone hydrochloride]

The next lines start with the compound.

Row | SMILES | In Vitro FAAH activity, 100 nM
12 | O=C(N1CCOCC1)n1ccc2cc(F)ccc21 [Compound 46, (5-fluoro-1H-indol-1-yl)(morpholino)methanone] | 104.3 % of control
13 | O=C(N1CCOCC1)n1ccc2cc(O)ccc21 [Compound 52, (5-hydroxy-1H-indol-1-yl)(morpholino)methanone] | 102.7 % of control
14 | CN(C(=O)n1cnc(-c2ccc(O)cc2)c1)c1ccc(F)cc1 [Compound 54, N-(4-fluorophenyl)-4-(4-hydroxyphenyl)-N-methyl-1H-imidazole-1-carboxamide] | 91 % of control
15 | O=C(Nc1ccc(Oc2ccccc2)cc1)n1nnc2ccccc21 [Compound 56, N-(4-phenoxyphenyl)-1H-benzo[d][1,2,3]triazole-1-carboxamide] | 90.7 % of control
16 | O=C(Nc1ccc(Cl)cc1)n1nnc2ccccc21 [Compound 62, N-(4-chlorophenyl)-1H-benzo[d][1,2,3]triazole-1-carboxamide] | 93.7 % of control
17 | COc1ccc(-c2ncn(C(=O)N3CCOCC3)n2)cc1 [Compound 65, (3-(4-methoxyphenyl)-1H-1,2,4-triazol-1-yl)(morpholino)methanone] | 86.5 % of control
18 | COc1ccc(-c2ncn(C(=O)N(C)c3ccc(F)cc3)n2)cc1 [Compound 66, N-(4-fluorophenyl)-3-(4-methoxyphenyl)-N-methyl-1H-1,2,4-triazole-1-carboxamide] | 80.9 % of control
19 | CN(C(=O)n1cnc(-c2ccc(Cl)cc2)n1)c1ccccc1 [Compound 67, 3-(4-chlorophenyl)-N-methyl-N-phenyl-1H-1,2,4-triazole-1-carboxamide] | 61 % of control
20 | O=C(N1CCOCC1)n1cnc(-c2ccc(Cl)cc2)n1 [Compound 68, (3-(4-chlorophenyl)-1H-1,2,4-triazol-1-yl)(morpholino)methanone] | 73.5 % of control
21 | O=C(N1CCOCC1)n1nc(Cl)c2ccccc21 [Compound 72, (3-chloro-1H-indazol-1-yl)(morpholino)methanone] | 87.6 % of control
22 | CN(C(=O)n1cnc(-c2ccccc2)n1)c1ccc(F)cc1F [Compound 74, N-(2,4-difluorophenyl)-N-methyl-3-phenyl-1H-1,2,4-triazole-1-carboxamide] | 73.2 % of control
23 | COc1cc(OC)cc(N(C)C(=O)n2nnc3ccccc32)c1 [Compound 77, N-(3,5-dimethoxyphenyl)-N-methyl-1H-benzo[d][1,2,3]triazole-1-carboxamide] | 76.3 % of control
24 | O=C(N1CCOCC1)n1cnc(-c2ccc(F)cc2F)n1 [Compound 78, (3-(2,4-difluorophenyl)-1H-1,2,4-triazol-1-yl)(morpholino)methanone] | 81.9 % of control
25 | CN(C(=O)n1cnc(-c2ccc(F)cc2F)n1)c1ccc(F)cc1F [Compound 80, N,3-bis(2,4-difluorophenyl)-N-methyl-1H-1,2,4-triazole-1-carboxamide] | 89.5 % of control
26 | CN(C)c1ccc(N(C)C(=O)n2nnc3ccccc32)cc1 [Compound 81, N-(4-(dimethylamino)phenyl)-N-methyl-1H-benzo[d][1,2,3]triazole-1-carboxamide] | 49.2 % of control
27 | Cl.O=C(N1CCC(N2CCCCC2)CC1)n1nnc2ccccc21 [Compound 82, 1,4′-bipiperidin-1′-yl(1H-benzo[d][1,2,3]triazol-1-yl)methanone hydrochloride] | 69.3 % of control
28 | CN1CCN(C(=O)n2nnc3ccccc32)CC1.Cl [Compound 83, (1H-benzo[d][1,2,3]triazol-1-yl)(4-methylpiperazin-1-yl)methanone hydrochloride] | 2.5 % of control
29 | CN(C(=O)n1nnc2ccccc21)c1ccccn1 [Compound 84, N-methyl-N-(pyridin-2-yl)-1H-benzo[d][1,2,3]triazole-1-carboxamide] | 62.5 % of control
30 | CCCCCCCCCCCCNC(=O)n1nnc2ccccc21 [Compound 86, N-dodecyl-1H-benzo[d][1,2,3]triazole-1-carboxamide] | 0 % of control
31 | O=C(N1CCOCC1)n1cc(-c2ccccc2)nn1 [Compound 89, morpholino(4-phenyl-1H-1,2,3-triazol-1-yl)methanone] | 4.5 % of control
32 | O=C(N1CCN(c2ccc(OCc3ccccc3)cc2)CC1)n1nnc2ccccc21 [Compound 91, (1H-benzo[d][1,2,3]triazol-1-yl)(4-(4-(benzyloxy)phenyl)piperazin-1-yl)methanone] | 0 % of control
